Non-standard residues stand in square brackets, D forms with d. Residues, ends and D or L forms follow the SMILES beside them. *: point of attachment. Palmitoyl = CCCCCCCCCCCCCCCC(=O)*
How the values were obtained:
[1] = test system: HEPG2 human liver carcinoma cells; assay: Cell Titer Blue in vitro cell viability assay, HEPG2; type: cell-based; details: 72 h, HEPG2 (DMEM), 3 days at 37° C.
Method: (§1) FIG. 12: Dose Response curve for MBC0179 with HEPG2 cells. Compound MBC0179 was incubated with HEPG2 human liver carcinoma cells at the indicated concentrations for 3 days at 37° C. prior to Cell Titer Blue fluorescence-based cell viability assay. Normalized cell viability data, expressed as a percentage, are averaged from three biological replicates and standard error represented by error bars for each averaged data point (empty squares). The compound concentrations are represented on log scale on the x-axis in μM units. Data were analyzed using free software called DrFit, as described in Nature Scientific Reports, Article number: 14701, (2015). […]
(§2) The Cell Titer Blue reagent (available from Promega, Inc.) is a buffered solution containing resazurin, a compound that is converted to resorufin, a detectable fluorescent product, by metabolically active cells. The fluorescence intensity of resorufin product therefore serves as a proportional measure of the number of viable cells, permitting changes in cell viability within cancer or other cell lines to be monitored in response to the addition of cytotoxic or cytostatic agents. […] Metastases to the lungs may be conveniently quantified by a well-established clonogenic assay. […]

[2] = test system: SK-N-SH human neuroblastoma cells; assay: Cell Titer Blue in vitro cell viability assay, SK-N-SH; type: cell-based; details: 72 h, SK-N-SH (DMEM), 3 days at 37° C.
Method: as §1, with “15:” for “12:”, “SK—N—SH” for “HEPG2”, “neuroblastoma” for “liver carcinoma”
as §2

[3] = test system: 4T1 murine breast cancer cell line-derived mammary tumors, metastasis to the lungs; assay: 4T1 mouse breast cancer lung metastasis study (clonogenic assay); type: in vivo; details: Balb/c mice
Method: FIG. 17: 4T1 Mouse Breast Cancer Lung Metastasis Study with MBC0179. Compound MBC0179 (in 7% w/v Cremophore EL/10% v/v ethanol/[…] vehicle) or vehicle only was administered intravenously to three groups of six Balb/c mice (8 week old) carrying 4T1 murine breast cancer cell line-derived mammary tumors, one week post-implantation. After twice weekly dosing for four weeks with vehicle (blue bar), 10 mg/kg (red bar) or 15 mg/kg (green bar) MBC0179, the mice were humanely euthanized according to IACUC guidelines and lungs excised for 4T1 colonogenic assay in order to provide a measure of 4T1 metastasis to the lungs. The colony counts were plotted, averaged and standard error calculated (error bars). […] Additonally, the percentage reduction in lung-derived 4T1 colonies between the vehicle and 15 mg/kg MBC0179 treatment group was calculated based on the average colony counts for each group, normalizing to the vehicle group, indicated on chart.
The Cell Titer Blue reagent (available from Promega, Inc.) is a buffered solution containing resazurin, a compound that is converted to resorufin, a detectable fluorescent product, by metabolically active cells. […] Metastases to the lungs may be conveniently quantified by a well-established clonogenic assay. […]

[4] = test system: K-562 human chronic myelogenous leukemia cells; assay: Cell Titer Blue in vitro cell viability assay, K-562; type: cell-based; details: 72 h, K562 (DMEM), in suspension, 3 days at 37° C.
Method: as §1, with “11:” for “12:”, “K-562” for “HEPG2”, “chronic myelogenous leukemia cells, a non-adherent cell line,” for “liver carcinoma cells”
as §2

IC50 [1]: 24.9 µM | IC50 [2]: 35 µM | IC50 [4]: 6.11 µM
Compound: CCCCCCCCCCCCCCCC(=O)N[C@H](Cc1c[nH]cn1)C(=O)N[C@@H](C(=O)OCC)C(C)C [Compound 5, N-[N-(1-oxohexadecyl)-D-histidyl]-D-valine ethyl ester] (Palmitoyl-[dH]-[dV]-OEt)
lung metastases (average 4T1 colony counts) ([3]; 10 mg/kg and 15 mg/kg intravenous twice weekly vs vehicle): dose-dependent reduction in lung metastases | percent reduction in lung metastases ([3]; 15 mg/kg intravenous twice weekly for four weeks vs vehicle, lung-derived 4T1 colonies, p=0.03, two-tailed t-test): 74.4%

From patent US20240124520A1, “N-ACYLATED HISTIDINE DIPEPTIDES AS ANTICANCER AGENTS” (THE BOARD OF TRUSTEES OF THE LELAND STANFORD JUNIOR …, priority 2019, published 2024)
